Assay results from the supplement of paper PMC10307832.

Legend:
Experiment in all cases: relative viability (nuclei count vs DMSO), 5 days (fraction); higher = more cells survive
ABC-1 = tested on: ABC-1
Method in brief: (§1)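 One day after seeding in 1536-well plates, lung cancer cell lines were dosed by pin tool. Dosing was either single-drug or a fixed anchor-drug dose plus five library-drug doses (not always all listed) in √10 steps. After 5 days, nuclei were stained in one fix-and-stain step and counted on 4× images, and relative viability is the nuclei count of treated wells over that of vehicle wells, given as the median of duplicate plates.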

ChaGo-K-1 = tested on: ChaGo-K-1
Method in brief: as §1

HCC-78 = tested on: HCC-78
Method in brief: as §1

HOP-62 = tested on: HOP-62
Method in brief: as §1

LCLC-97TM1 = tested on: LCLC-97TM1
Method in brief: as §1

LOU-NH91 = tested on: LOU-NH91
Method in brief: as §1

NCI-H1355 = tested on: NCI-H1355
Method in brief: as §1

NCI-H1437 = tested on: NCI-H1437
Method in brief: as §1

NCI-H1755 = tested on: NCI-H1755
Method in brief: as §1

NCI-H1792 = tested on: NCI-H1792
Method in brief: as §1

NCI-H2009 = tested on: NCI-H2009
Method in brief: as §1

NCI-H2023 = tested on: NCI-H2023
Method in brief: as §1

O=C(O)CCCCC(CCSCc1ccccc1)SCc1ccccc1 (configuration not stated) [CPI-613] + O=C(c1cc(Cc2n[nH]c(=O)c3ccccc23)ccc1F)N1CCN(C(=O)C2CC2)CC1 [Olaparib] (partner 8 µM)
relative viability (ABC-1; first compound 5 µM): 0.816
relative viability (ABC-1; first compound 15.81 µM): 0.845
relative viability (ABC-1; first compound 50 µM): 0.957
relative viability (ABC-1; first compound 158.11 µM): 0.448
relative viability (ABC-1; first compound 500 µM): 0.383
relative viability (ChaGo-K-1; first compound 5 µM): 0.4
relative viability (ChaGo-K-1; first compound 15.81 µM): 0.411
relative viability (ChaGo-K-1; first compound 50 µM): 0.412
relative viability (ChaGo-K-1; first compound 158.11 µM): 0.319
relative viability (ChaGo-K-1; first compound 500 µM): 0.251
relative viability (HCC-78; first compound 15.81 µM): 0.792
relative viability (HCC-78; first compound 50 µM): 0.857
relative viability (HCC-78; first compound 158.11 µM): 0.842
relative viability (HCC-78; first compound 500 µM): 0.711
relative viability (HOP-62; first compound 5 µM): 0.298
relative viability (HOP-62; first compound 15.81 µM): 0.471
relative viability (HOP-62; first compound 50 µM): 0.368
relative viability (HOP-62; first compound 158.11 µM): 0.459
relative viability (HOP-62; first compound 500 µM): 0.459
relative viability (LCLC-97TM1; first compound 5 µM): 0.322
relative viability (LCLC-97TM1; first compound 15.81 µM): 0.287
relative viability (LCLC-97TM1; first compound 50 µM): 0.372
relative viability (LCLC-97TM1; first compound 158.11 µM): 0.183
relative viability (LCLC-97TM1; first compound 500 µM): 0.191
relative viability (LOU-NH91; first compound 5 µM): 0.883
relative viability (LOU-NH91; first compound 15.81 µM): 0.86
relative viability (LOU-NH91; first compound 50 µM): 0.867
relative viability (LOU-NH91; first compound 158.11 µM): 0.442
relative viability (LOU-NH91; first compound 500 µM): 0.533
relative viability (NCI-H1355; first compound 5 µM): 0.728
relative viability (NCI-H1355; first compound 15.81 µM): 0.706
relative viability (NCI-H1355; first compound 50 µM): 0.714
relative viability (NCI-H1355; first compound 158.11 µM): 0.376
relative viability (NCI-H1355; first compound 500 µM): 0.0737
relative viability (NCI-H1437; first compound 5 µM): 0.599
relative viability (NCI-H1437; first compound 15.81 µM): 0.595
relative viability (NCI-H1437; first compound 50 µM): 0.508
relative viability (NCI-H1437; first compound 158.11 µM): 0.112
relative viability (NCI-H1437; first compound 500 µM): 0.0622
relative viability (NCI-H1755; first compound 5 µM): 0.91
relative viability (NCI-H1755; first compound 15.81 µM): 0.894
relative viability (NCI-H1755; first compound 50 µM): 0.954
relative viability (NCI-H1755; first compound 158.11 µM): 0.751
relative viability (NCI-H1755; first compound 500 µM): 0.805
relative viability (NCI-H1792; first compound 5 µM): 0.391
relative viability (NCI-H1792; first compound 15.81 µM): 0.358
relative viability (NCI-H1792; first compound 50 µM): 0.328
relative viability (NCI-H1792; first compound 158.11 µM): 0.0603
relative viability (NCI-H1792; first compound 500 µM): 0.087
relative viability (NCI-H2009; first compound 5 µM): 0.703
relative viability (NCI-H2009; first compound 15.81 µM): 0.707
relative viability (NCI-H2009; first compound 50 µM): 0.67
relative viability (NCI-H2009; first compound 158.11 µM): 0.109
relative viability (NCI-H2009; first compound 500 µM): 0.0171
relative viability (NCI-H2023; first compound 5 µM): 0.47
relative viability (NCI-H2023; first compound 15.81 µM): 0.425
relative viability (NCI-H2023; first compound 50 µM): 0.41
